Data set [1] deals with Notch inhibitor resistant (persister) T-ALL cell lines. In words: Cell viability / proliferation (Celltiterglo luminescence). In kind it is cell-based, human. The following applies: compared to naïve cells, viability read on day 6. On the procedure: (§1) Notch inhibitor sensitive and resistant T-ALL cell lines were plated in 96 well plates and treated with vehicle, 1 uM GSI and/or increasing concentrations of the bet inhibitor JQ1. Cell viability was determined by measuring luminescence after Celltiterglo® (Promega) addition on day 6. Apoptosis was measured using Caspaseglo® (Promega) on day 4.

Data set [2] has as its system Notch inhibitor sensitive T-ALL cell lines. In words: Long-term culture of Notch inhibitor sensitive T-ALL cell lines with GSI (resistance modeling). In kind it is cell-based, human. On the procedure:
Notch inhibitor sensitive T-ALL cell lines were cultured in the presence of 1 μM GSI in vitro. Cells were plated at 0.25×10^6/ml in 20 mL and split every 3-4 days. Cell viability, cell size and cell cycle were measured every 3-4 days. […] GSI-treated cells stopped proliferating between day 14 to 30 of culture, but eventually started proliferating again despite the presence of GSI with subsequent growth rates being equal or similar to untreated cells.

Data set [3] can be described thus: Gastrointestinal toxicity, Periodic acid-Schiff (PAS) stain in Balb/c mice. In kind it is in vivo, mouse. The following applies: JQ1 given in addition to DBZ. The protocol:
Balb/c mice were treated with DBZ+JQ1, DBZ, or vehicle alone. Hyperproliferation of globlet cells was measured by Periodic acid-Schiff (PAS) stain.

A further data set has as its system MYC in naïve T-ALL cells. In words: MYC expression, Western blot (FIG. 12B, 17A). In kind it is cell-based, human. On the procedure: (§2) FIG. 17A is two photographs of western blots show MYC expression in naïve and persister cells after 3 day treatment with 2 μM AKT inhibitor, MK-2206, or 10 nM mTOR inhibitor, Rapamycin. FIG. 17B depicts graphs showing BRD4 binding at the MYC and BCL2 promoters.

Data set [4] relates to Bcl-2 in naïve leukemia cells. In words: Bcl-2 protein level, Western blot (FIG. 9B). In kind it is cell-based, human. The following applies: naïve population.
Data set [5] deals with Notch inhibitor resistant T-ALL cell lines. In words: Apoptosis (Caspaseglo). In kind it is cell-based, human. The following applies: resistant leukemia cells compared to naïve; day 4. On the procedure:
as §1

The test system of data set [6] is Notch inhibitor sensitive (naïve) T-ALL cell lines. The experiment in a line: Cell viability / proliferation (Celltiterglo luminescence). In kind it is cell-based, human. The following applies: JQ1 concentrations that arrest persisters. On the procedure: as §1
Another data set relates to MYC in persister cells. In words: MYC expression, Western blot (FIG. 17A). In kind it is cell-based, human. The protocol: as §2
Data set [7] deals with Bcl-2 in GSI resistant leukemia cells. The experiment in a line: Bcl-2 protein level, Western blot (FIG. 9B). In kind it is cell-based, human. The following applies: GSI resistant (persister) cells.

The values below come from patent publication US9763956B2, “Diagnostic and treatment methods in subjects having or at risk of developing resistance to cancer therapy” (The Broad Institute, Inc., priority 2012, dated 2017).

Entries after “also recorded” stand apart in the source; their conditions may differ.

Regarding `CN(C)CC[C@H](CSc1ccccc1)Nc1ccc(S(=O)(=O)NC(=O)c2ccc(N3CCN(Cc4ccccc4-c4ccc(Cl)cc4)CC3)cc2)cc1[N+](=O)[O-]` [ABT-737], the “proliferation / survival of resistant (persister) leukemia cells” value (“proliferation / survival of resistant” below) in [1] is recorded as “effectively killed persister cells”.

In the case of `C[C@H](NC(=O)Cc1cc(F)cc(F)c1)C(=O)N[C@H]1N=C(c2ccccc2)c2ccccc2N(C)C1=O` [compound E], the “GSI concentration tolerated by persister cells relative to the IC50” value in data set [2] was “more than 50 fold”.

In the case of `Cc1sc2c(c1C)C(c1ccc(Cl)cc1)=N[C@@H](CC(=O)OC(C)(C)C)c1nnc(C)n1-2` (single isomer, unassigned) [JQ1 enantiomer], the “proliferation / survival of resistant” value in [1] is “no effect”.

On to `Cc1sc2c(c1C)C(c1ccc(Cl)cc1)=N[C@@H](CC(=O)OC(C)(C)C)c1nnc(C)n1-2` [JQ1], for which, in data set [3], the “intestinal villi architecture (PAS stain)” value was “largely ameliorated villi architecture”. Moreover, the figures for the MYC expression entry in the data set on MYC in naïve T-ALL cells and with MYC in persister cells were “did not alter MYC” and “significantly reduced MYC expression”, respectively. The Bcl-2 expression entry in data set [4] is given as “little effect”. Further, the apoptosis entry in data set [5] is given as “increase in apoptosis”. Besides, the “proliferation of naïve T-ALL cells” value in [6] is listed as “well tolerated”. The “proliferation / survival of resistant” value in [1] is on record as “decrease in proliferation; also recorded: proliferation arrest”. For the same compound, the “Bcl-2 protein level / expression” value in data set [7] was “inhibited; also recorded: decreased level of Bcl-2 protein; also recorded: significantly reduced Bcl-2 expression”.
